Reference: PMC9065678, “BI 1015550 is a PDE4B Inhibitor and a Clinical Drug Candidate for the Oral Treatment of Idiopathic Pulmonary Fibrosis” (Frontiers in Pharmacology, 2022)

What was measured:
PDE4D = biological target: T1, PDE4D (Homo sapiens, UniProt Q08499); test: Recombinant PDE activity, scintillation proximity assay: PDE4D; assay type: biochemical; conditions: human recombinant active site fragment, substrate [3H]cAMP, means from n independent experiments; read-out: IC50 PDE4D2
T1 construct: PDE4D NG_027957, AA 79–438; made in house; host or cells: SF9 insect cells (baculovirus, Bac-To-Bac, pFastbac)
T1 sequence (Q08499 381-740): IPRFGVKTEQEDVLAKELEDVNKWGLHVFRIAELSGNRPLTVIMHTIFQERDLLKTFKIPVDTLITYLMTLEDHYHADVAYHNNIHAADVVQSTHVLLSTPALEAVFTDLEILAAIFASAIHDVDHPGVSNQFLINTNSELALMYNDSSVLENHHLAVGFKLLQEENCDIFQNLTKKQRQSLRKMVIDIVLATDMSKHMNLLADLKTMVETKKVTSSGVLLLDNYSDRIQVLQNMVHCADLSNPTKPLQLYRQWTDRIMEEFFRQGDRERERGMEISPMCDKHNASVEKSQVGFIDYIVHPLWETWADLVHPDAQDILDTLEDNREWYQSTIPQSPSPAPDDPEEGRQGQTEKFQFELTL
Procedure: (§1) For the preparation of human recombinant PDEs of interest, the Bac-To-Bac baculoviral expression system from Invitrogen (Carlsbad, CA, United States) was used according to the instruction manual. […] The plasmids were transformed into DH10Bac bacteria, SF9 insect cells were transfected with the bacmid DNA, and the resulting baculoviruses were stored and used for further rounds of infections. For protein production, SF9 cells were infected until a cytopathic effect was visible (after about 72 h), the SF9 cells were harvested and broken up by 3 freeze/thaw cycles, and by shearing 10 times through a 0.1 mm cannula using a syringe. […] The Phosphodiesterase Scintillation Proximity Assays (TRKQ7090 for [^3H]cAMP, GE Healthcare Europe GmbH, Chalfont St Giles, United Kingdom, and TRKQ7100 for [^3H]cGMP, Perkin Elmer, Waltham, MA, United States) were performed essentially according to the instruction manual. […] Assay solutions containing recombinant baculoviral-expressed PDE (to give an activity of 5.000–20.000 cpm corresponding to 5–20% of total activity added), 50 mmol/L Tris/HCl pH 7.5, 8.3 mmol/L MgCl2, 1.7 mmol/L EGTA, and 10 µL radiolabeled substrate (0.05 µCi in H2O) were incubated for 1 h at 30°C (final volume 100 μL).

PDE4C = biological target: T2, PDE4C (Homo sapiens, UniProt Q08493); test: Recombinant PDE activity, scintillation proximity assay: PDE4C; assay type: biochemical; conditions: substrate [3H]cAMP, means from n independent experiments, read-out: IC50 PDE4C2
T2 construct: made in house; host or cells: SF9 insect cells (baculovirus, Bac-To-Bac, pFastbac)
T2 sequence (Q08493 107-712): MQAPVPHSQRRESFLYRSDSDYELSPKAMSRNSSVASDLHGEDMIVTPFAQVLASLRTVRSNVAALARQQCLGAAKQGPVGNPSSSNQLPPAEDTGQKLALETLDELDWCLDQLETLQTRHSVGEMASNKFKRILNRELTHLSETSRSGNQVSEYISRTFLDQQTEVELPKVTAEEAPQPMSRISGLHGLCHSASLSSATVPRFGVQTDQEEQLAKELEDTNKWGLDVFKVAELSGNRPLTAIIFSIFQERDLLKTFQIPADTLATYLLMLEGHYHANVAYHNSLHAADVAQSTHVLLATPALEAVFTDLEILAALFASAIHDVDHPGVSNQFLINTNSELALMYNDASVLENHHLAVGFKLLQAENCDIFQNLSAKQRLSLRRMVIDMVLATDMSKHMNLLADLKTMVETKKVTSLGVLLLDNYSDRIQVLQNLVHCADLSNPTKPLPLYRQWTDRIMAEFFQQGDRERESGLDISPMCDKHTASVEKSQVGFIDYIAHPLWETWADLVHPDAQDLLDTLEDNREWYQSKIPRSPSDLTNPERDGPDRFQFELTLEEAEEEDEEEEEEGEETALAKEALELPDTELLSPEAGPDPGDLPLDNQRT
Procedure: as §1

PDE4B = biological target: T3, PDE4B (Homo sapiens, UniProt Q07343); test: Recombinant PDE activity, scintillation proximity assay: PDE4B; assay type: biochemical; conditions: human recombinant active site fragment, substrate [3H]cAMP, means from n independent experiments; read-out: IC50 PDE4B2
T3 construct: PDE4B NG_029038: AA 152–484; made in house; host or cells: SF9 insect cells (baculovirus, Bac-To-Bac, pFastbac)
T3 sequence (Q07343 324-656): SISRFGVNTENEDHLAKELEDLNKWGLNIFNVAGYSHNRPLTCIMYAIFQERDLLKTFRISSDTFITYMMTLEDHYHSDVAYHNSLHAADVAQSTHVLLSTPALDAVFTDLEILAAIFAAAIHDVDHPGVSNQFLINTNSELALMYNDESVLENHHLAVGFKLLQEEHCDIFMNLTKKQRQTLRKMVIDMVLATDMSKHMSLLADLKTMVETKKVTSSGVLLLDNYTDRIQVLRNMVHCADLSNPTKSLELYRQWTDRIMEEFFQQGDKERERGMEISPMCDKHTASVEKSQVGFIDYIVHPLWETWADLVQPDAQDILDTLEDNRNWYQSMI
Procedure: as §1

PDE4A = biological target: T4, PDE4A (Homo sapiens, UniProt P27815); test: Recombinant PDE activity, scintillation proximity assay: PDE4A; assay type: biochemical; conditions: substrate [3H]cAMP, means from n independent experiments
T4 construct: PDE4A (NG_029594, AA 156–886); made in house; host or cells: SF9 insect cells (baculovirus, Bac-To-Bac, pFastbac)
T4 sequence (P27815 156-886): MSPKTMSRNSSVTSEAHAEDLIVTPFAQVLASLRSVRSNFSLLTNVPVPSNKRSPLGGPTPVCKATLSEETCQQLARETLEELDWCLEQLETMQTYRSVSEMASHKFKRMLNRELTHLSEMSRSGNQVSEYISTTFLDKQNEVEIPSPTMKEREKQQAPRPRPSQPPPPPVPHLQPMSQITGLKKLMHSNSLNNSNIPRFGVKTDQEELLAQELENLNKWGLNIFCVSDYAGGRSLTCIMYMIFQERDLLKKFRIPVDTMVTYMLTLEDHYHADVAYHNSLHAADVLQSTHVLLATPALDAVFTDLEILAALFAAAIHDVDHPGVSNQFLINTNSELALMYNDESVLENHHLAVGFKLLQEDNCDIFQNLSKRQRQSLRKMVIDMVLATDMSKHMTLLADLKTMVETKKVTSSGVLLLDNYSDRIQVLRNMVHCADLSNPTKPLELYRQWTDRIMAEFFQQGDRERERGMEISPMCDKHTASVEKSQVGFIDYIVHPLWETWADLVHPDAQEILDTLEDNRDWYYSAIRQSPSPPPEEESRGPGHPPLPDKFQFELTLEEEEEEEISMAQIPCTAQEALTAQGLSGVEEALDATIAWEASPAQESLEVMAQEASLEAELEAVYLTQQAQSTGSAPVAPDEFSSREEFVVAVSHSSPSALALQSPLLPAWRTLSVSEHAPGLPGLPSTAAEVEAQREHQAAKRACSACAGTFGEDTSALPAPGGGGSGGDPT
Procedure: as §1

[1] = tested on: LPS-induced lung neutrophil influx; test: LPS-induced lung neutrophil influx in male Wistar rats; assay type: in vivo, rat; conditions: Rattus norvegicus, Neutrophil, oral, data not shown
Source text: (§2) Compared with other animal species used to study emesis induction by PDE4 inhibitors, like ferrets, dogs, minipigs, or monkeys, Suncus murinus allows the testing of a sufficient number of animals to provide a high statistical power. […] Male Suncus murinus (weight 50–55 g) from Boehringer Ingelheim (Biberach an der Riss, Germany) or male Wistar rats (200–250 g, Charles River), eight animals per group, were used. […] For this purpose, animals in the positive control and treatment groups were put into a circular Plexiglas chamber with 16 pie-like compartments for one animal each, and were consecutively exposed to nebulized LPS for 30 min. The LPS solution used for nebulization contained 1 mg/mL LPS in phosphate-buffered saline (PBS). Nebulization was performed with the commercially available PARI Master® nebulizer with a PARI Master® LL adapter (Pari GmbH, Starnberg, Germany). 4 h after LPS exposure, the animals were anesthetized and euthanized by cervical dislocation. After sacrifice, the trachea was cannulated and bronchoalveolar lavage was performed by instilling and re-aspirating two-times 1 mL (Suncus murinus) or 5 mL (rat) lavage buffer (PBS +2% bovine serum albumin). BALF volumes were recorded manually. Determination of neutrophil numbers in BALF was performed using a blood hemacytometer (Sysmex XT-1800i, Kobe, Japan).

Suncus murinus = test: Determination of emesis in male Suncus murinus; assay type: in vivo
Procedure: All animals (50–55 g) were dosed orally by gavage immediately before transfer to whole-body plethysmography boxes. The volume of application was set to 10 mL/kg body weight. For assessment of the emetic events, animals were placed in the whole-body plethysmography boxes without any access to feed or water for 3 h. The whole-body plethysmography system used to detect emetic events consisted of five major components: 1) plethysmography boxes for mice (Buxco®, PLY 3211-F, Data Sciences International, New Brighton, MN, United States), 2) a pressure transducer with an amplifier, 3) a bias flow regulator, 4) a PC-based system to receive and process the amplified signals, and 5) a PC-based data acquisition system (NOTOCORD-hem™, Instem, Stone, United Kingdom) to process signals, as well as in-house-developed software to detect and identify changes in breathing pattern. Retching and vomiting induced characteristic changes in the breathing pattern of animals and these were recorded by whole-body plethysmography and translated for NOTOCORD recording. A number of preset definitions (computer-based criteria) characteristic for emetic events were determined. Peaks that met the set internal computer-based criteria and exceeded the threshold of more than 600 mV were labeled as emetic events by the system on a standard basis.

[2] = tested on: LPS-induced neutrophil influx into the BALF; test: LPS-induced neutrophil influx into the BALF of Suncus murinus; assay type: in vivo; conditions: Neutrophil, oral, 30 min before nebulized LPS, read-out: ED50 LPS-induced BALF neutrophils
Source text: as §2

IPF-LF cells = test: bFGF plus IL-1β-induced proliferation of IPF lung fibroblasts (bromodeoxyuridine assay); assay type: cell-based; conditions: Homo sapiens, Fibroblast, read-out: Inhibition of proliferation
Procedure: (§3) Fibroblasts from donors with IPF (IPF-LF) (Asterand, Detroit, MI, United States) were grown in fibroblast basal medium (CC-3131, Lonza Walkersville, Inc., Walkersville, MD, United States) supplemented with FGM-2 SingleQuot Kit Supplements and Growth Factors (CC-4126, Lonza). Cells were grown in a humidified incubator at 37°C and 5% CO2. All assays were performed at passage 7 or 8. For assay set-up, cells were seeded in fibroblast growth medium plus supplements in assay-relevant densities. For TGF-β-stimulated assays, cells were seeded at 4,500 cells per well in 96-well plates. Proliferation assays were performed in 96-well plates at an initial seeding cell density on day 0 of 2,000 cells per well. After 24-h, the cell culture medium was changed to starvation medium (fibroblast basal medium without supplements). After a 24-h starvation period, cells were pre-incubated for 30 min with different concentrations of BI 1015550 plus/minus different concentrations of nintedanib and/or 1 nmol/L PGE2 and stimulated with the assay-relevant stimulus for the indicated time in the presence of the compound.
IPF-LF cells were stimulated with bFGF (20 ng/mL) plus IL-1β (30 pg/mL). After 72 h of stimulation, 10-times concentrated bromodeoxyuridine was added and the cells were incubated for another 18 h (final concentration bromodeoxyuridine 10 μmol/L). Cell proliferation was assessed by bromodeoxyuridine assay (Roche, Mannheim, Germany) according to the instruction manual.

α-SMA protein expression = α-SMA protein expression of TGF-β-stimulated IPF lung fibroblasts (Western blot replacement assay); assay type: cell-based, human; conditions: alone, up to the highest concentration of 100 nmol/L
Procedure: as §3
For determination of α-SMA protein expression, IPF-LF cells were stimulated with TGF-β (4 ng/mL) for 48 h. Lysates were assayed in a Western blot replacement assay (MSD). In short, lysates were pipetted onto high binding plates (MSD) and were sequentially incubated with a mouse anti-human α-SMA antibody (Sigma Aldrich) and an anti-mouse sulfo-tag antibody (MSD). For analysis, an MSD sector imager was used.

SMILES: O=C(Nc1c(Cl)c[n+]([O-])cc1Cl)c1ccc(OC(F)F)c(OCC2CC2)c1 [Roflu-N-Ox, roflumilast N-oxide, reference compound]
- IC50 (PDE4D): 1.4 nM
- IC50 (PDE4C): 15 nM
- IC50 (PDE4B): 1.4 nM
- IC50 (PDE4A): 2.8 nM

SMILES: O=C(Nc1c(Cl)cncc1Cl)c1ccc(OC(F)F)c(OCC2CC2)c1 [Roflumilast, roflumilast, reference compound]
- ED50 [1]: 1 mg/kg
- Animals showing emesis (Suncus murinus; 10 × ED50 oral (BI 1015550 6 mg/kg, roflumilast 10 mg/kg)): 10/24
- % of vomiting animals, emesis at 10 × ED50 (Suncus murinus; oral (BI 1015550 6 mg/kg, roflumilast 10 mg/kg), 24 animals): 42%
- ED50 [2]: 1 mg/kg

SMILES: COC(=O)c1ccc2c(c1)NC(=O)/C2=C(\Nc1ccc(N(C)C(=O)CN2CCN(C)CC2)cc1)c1ccccc1 [Nintedanib, nintedanib, reference compound]
- inhibition at 0.1 µM (IPF-LF cells): 15%
- Inhibitory effect on α-SMA protein expression (α-SMA protein expression): no inhibitory effect
